The source of these data is patent publication US11884649B2, “IRE1α inhibitors and uses thereof” (The Regents of the University of California, priority 2020, dated 2024).

Entries after “also recorded” stand apart in the source; their conditions may differ.

Assay [1] deals with T1, IRE1α* (Homo sapiens, UniProt O75460).
T1 construct: human IRE1α (residues 547-977, IRE1α*) was expressed in SF9 insect cells; His6 (N); made in house; host or cells: Sf9 insect cells (Bac-to-Bac baculovirus)
Description: In vitro RNase activity assay, XBP1-mini substrate cleavage, inhibitor titrations. The conditions noted are these: relative to apo IRE1α*. It counts as biochemical. The procedure:
In Vitro RNase Activity Assay Inhibitor Titrations
50 nM IRE1α* was incubated with inhibitor (initial concentration of 10 or 60 μM, three-fold serial dilutions) or DMSO for 30 min in assay buffer (20 mM Tris, 50 mM NaCl, 1 mM MgCl2, 2 mM DTT, 0.05% Triton X-100 (v/v), pH 7.5). Assays were initiated by adding 10 μL of XBP1-mini substrate (5′-Alex647-CAUGUCCGCAGCGCAUG-IowaBlack-FQ-3′ (SEQ ID NO: 1); IDT) to the wells at a final concentration of 200 nM and a final well volume of 30 μL. Fluorescence was detected on a Perkin Elmer Envision Microplate Reader at excitation and emission wavelengths of 650 nm and 665 nm. Dose-response curves were fit using “one-site fit log IC50” parameter using GraphPad Prism analysis software.

The target of assay [2] is T1, IRE1α*. Description: In vitro Kdimer assay (dimerization affinity from RNase activity). It counts as biochemical. The conditions noted are these: 50 μM inhibitor. The text has this:
In order to better understand how to achieve an optimal intermediate RNase activation state through engagement of IRE1α's kinase domain, we first established a quantitative in vitro framework for characterizing how ATP-binding site occupancy influences RNase activity. […] This dimeric state-commonly referred to as the “back-to-back” dimer—is characterized by an extensive interface between the kinase and RNase domains of each IRE1α protomer; this dimeric state can be promoted through mass action as IRE1α concentration is raised. […] Furthermore, ligands that occupy the ATP-binding site of the kinase domain can also stimulate IRE1α's RNase activity by promoting dimer formation. We measured the ability of a purified, recombinant kinase/RNase domain construct of IRE1α—called IRE1α*—to cleave a FRET-quenched XBP1 RNA mini-substrate as a function of IRE1α* concentration, in order to provide a quantitative metric of IRE1α's dimer affinity (Kdimer) (FIG. 1B).
IRE1α* or dPIRE1α* was titrated from either 2 μM or 4 μM in two-fold serial dilutions in assay buffer (20 mM Tris, 50 mM sodium chloride, 1 mM MgCl2, 2 mM DTT, 0.05% Triton X-100 (v/v), pH 7.5) and incubated with 50 μM inhibitor for 30 minutes at room temperature. Assays were initiated by adding 10 μL of XBP1-mini substrate (5′-Alex647-CAUGUCCGCAGCGCAUG-IowaBlack-FQ-3′ (SEQ ID NO:1); IDT) to the wells at a final concentration of 6 μM and a final well volume of 30 μL. Fluorescence was detected on a Perkin Elmer Envision Microplate Reader at excitation and emission wavelengths of 650 nm and 665 nm. Reaction process was monitored real time in 10-second intervals for at least 30 minutes. Initial rates of XBP1-cleavage were determined for each respective IRE1α* of dpIRE1α* concentration. Specific activity was then determined by dividing rate (RFU/s) by the respective IRE1α* of dpIRE1α* used (RFU/s*[IRE1α]). Kdimer values were determined by fitting these values using the non-linear regression ‘one-site total’ binding parameter in GraphPad Prism analysis software.

Assay [3] has as its target T1, IRE1α*. Description: In vitro kinase activity assay (IRE1α kinase inhibition). The format is biochemical. The procedure:
A construct containing the cytosolic kinase and RNase domains of human IRE1α (residues 547-977, IRE1α*) was expressed in SF9 insect cells by using the Bac-to-Bac baculovirus expression system (Invitrogen) with a His6 tag at the N-terminus and purified with a nickel-nitriloacetic acid (Qiagen) column. To generate dP-IRE1α*, we removed basal phosphorylation sites by incubating IRE1α* with λ-PPase (New England Biolabs) at a molar ratio of 5:1 (IRE1α*: λ-PPase) in 50 mM HEPES pH 7.5, 100 mM NaCl, 1 mM MnCl2, 2 mM dithiothreitol (DTT) and 0.01% Brij 35 detergent (v/v) overnight at 4° C. Dephosphorylation was verified through western blotting using a universal phospho-protein detection agent (biotin-pIMAGO (Tymora Analytical Operations, Cat. No.: FL800) and imaged using a streptavidin-linked fluorophore.
In Vitro Kinase Activity Assay
Inhibitors (initial concentration of 10 or 60 μM, three-fold serial dilutions) were incubated with IRE1α* in cleavage buffer (20 mM HEPES, 0.05% Triton X-100 (v/v), 50 mM KCl, 1 mM MgCl2, 1 mM DTT, pH 7.5) for 30 min, followed by incubation with 10 μCi [γ^32P] ATP (3,000 Ci mmol^−1, PerkinElmer) at 23° C. for 3 hours. Samples were then spotted onto glass fiber paper (Easytab-C Glass Fiber Filter Paper, Perkin Elmer) and washed in twice with 0.5% phosphoric acid and autoradiographed using a GE Typhoon FLA 9000 Imager. Blots were quantitated using ImageQuant software. The percent inhibition was quantified by setting the background (no kinase well) as 0 and standardizing to IRE1α* without compound treatment (IRE1α*+DMSO). Dose-response curves were fit using “one-site fit log IC50” parameter using GraphPad Prism analysis software.
Compound Characterization (IC50 IRE1α Kinase Inhibition)

For another assay, the target named is T2, dpIRE1α* (Homo sapiens, UniProt O75460).
T2 construct: human IRE1α (residues 547-977, IRE1α*) was expressed in SF9 insect cells; His6 (N); made in house; host or cells: Sf9 insect cells, then λ-PPase treatment
Description: In vitro Kdimer assay with dephosphorylated construct. It counts as biochemical. The conditions noted are these: 50 μM inhibitor. From the text:
In order to better understand how to achieve an optimal intermediate RNase activation state through engagement of IRE1α's kinase domain, we first established a quantitative in vitro framework for characterizing how ATP-binding site occupancy influences RNase activity. […] This dimeric state-commonly referred to as the “back-to-back” dimer—is characterized by an extensive interface between the kinase and RNase domains of each IRE1α protomer; this dimeric state can be promoted through mass action as IRE1α concentration is raised. […] Furthermore, ligands that occupy the ATP-binding site of the kinase domain can also stimulate IRE1α's RNase activity by promoting dimer formation. We measured the ability of a purified, recombinant kinase/RNase domain construct of IRE1α—called IRE1α*—to cleave a FRET-quenched XBP1 RNA mini-substrate as a function of IRE1α* concentration, in order to provide a quantitative metric of IRE1α's dimer affinity (Kdimer) (FIG. 1B). […]
IRE1α* or dPIRE1α* was titrated from either 2 μM or 4 μM in two-fold serial dilutions in assay buffer (20 mM Tris, 50 mM sodium chloride, 1 mM MgCl2, 2 mM DTT, 0.05% Triton X-100 (v/v), pH 7.5) and incubated with 50 μM inhibitor for 30 minutes at room temperature. […] Fluorescence was detected on a Perkin Elmer Envision Microplate Reader at excitation and emission wavelengths of 650 nm and 665 nm. […]

The next assay relates to mouse splenocytes. As to the kind of experiment: LPS-induced differentiation of mouse splenocytes into plasma cells (flow cytometry, IgM ELISA). The conditions noted are these: 1 μg/mL LPS, three days, 20 μM-1.25 μM. It counts as cell-based. The procedure: Therefore, we sought to compare the sensitivity of this process to both KIRAs and PAIRs. To this end, we assessed how KIRA8, KIRA9, and PAIR1 affected the differentiation of lipopolysaccharide (LPS)-treated mouse splenocytes into antibody-secreting plasma cells. Total live number of CD19+ B-cells were assessed and plasma cells were quantified on the basis of B220 downregulation and CD138 expression by flow cytometry (FIGS. 6A-6C, FIG. 24). Concomitantly, secreted IgM was measured in the cell culture supernatants by ELISA (FIG. 6C).
Splenocyte Isolation and Differentiation
Red blood cells were lysed with ammonium chloride potassium buffer. Splenocytes were plated at 2.5×10^5 cells/well in a 96-well round bottom plate in complete media. The splenocytes were treated with or without 1 μg/ml LPS 026:b6 (Sigma). […] The splenocytes were incubated for three days in a 37° C., 5% CO2 humidified chamber before collection and staining for flow cytometry.
Cells from the plasma cell assay were collected in a 96-well plate and washed with PBS followed by staining with LIVE/DEAD Fixable Near-IR Dead Cell Stain kit (Invitrogen). Reagent was reconstituted as per manufacturer's instructions, diluted 1:1000 in PBS, and cells were stained in 100 μL on ice for 20 minutes. The cells were then washed with FACS buffer, PBS (Corning), 2 mM EDTA and 2% heat inactivated fetal bovine serum (Omega Scientific). The cells were then stained with 50 μL antibody cocktail consisting of anti-CD19 (BioLegend), anti-CD45R (BD Pharmingen), and anti-CD138 (BioLegend) in FACS buffer on ice for 15 minutes. Cells were resuspended in FACS buffer and combined with an equal volume of 4% paraformaldehyde with 5000 Countbright Absolute Counting Beads (Thermofisher). Stained cells were analyzed on a Fortessa (Becton Dickinson). Data analysis was performed using FlowJo (v10) software (Treestar Inc.).
Media supernatants from the in vitro plasma cell differentiation assay were measured for secreted IgM by ELISA. […] Wash buffer (PBS with 0.05% Tween-20 (v/v)) was used for all washing steps and blocked with PBS-BB (PBS without Ca^2+/Mg^2+, 1% BSA (w/v), 0.05% Tween-20 (v/v)). Supernatants from LPS stimulated samples were diluted (1:100) and media only samples were diluted (1:10) in PBS-BB. […] ELISA plates were developed with TMB (Sigma) and stopped with 1N sulfuric acid. Absorbance was measured at 450 nm using spectrophotometer (Spectramax M5, Molecular Devices). Sample IgM concentration values were calculated with SoftMaxPro software.
In general terms: Flow cytometry measures light scatter and fluorescence of single cells or particles in a stream.

The next assay has as its system XBP1 mRNA splicing. As to the kind of experiment: XBP1 splicing in ER-stressed INS-1 cells. The format is cell-based, rat. The conditions noted are these: brefeldin A (BFA) or thapsigargin (Tg). The procedure:
RNA Isolation, Quantitative Real-Time PCR, and Primers
INS-1 or isogenic IRE1α-overexpressing INS-1 cells were plated onto Poly-D-Lysine coated tissue culture plate and grown for 48 hrs. Inhibitors or DMSO were added to the media and incubated for 1 hour at 37° C. with 5% CO2 prior to addition of ER stress agents or Dox as indicated. RNA was isolated from whole cells using either QIAGEN RNeasy Mini kits or Trizol (Invitrogen) and reverse transcribed as above to obtain total cDNA. Then, XBP-1 primers were used to amplify an XBP-1 amplicon spanning the 26 nt intron from the cDNA samples in a regular 3-step PCR. Thermal cycles were: 5 min at 95° C., 30 cycles of 30 s at 95° C., 30 s at 60° C., and 1 min at 72° C., followed by 72° C. for 15 min, and hold at 4° C. Primers used for XBP-1 mRNA splicing were as follows: sense primer XBP1.3 S (5′ […]-3′ (SEQ ID NO:2)) and antisense primer XBP1.2AS (5′-[…]-3′ (SEQ ID NO:3)). PCR fragments were then digested by PstI, resolved on 3% agarose gels, stained with EtBr and quantified by densitometry using ImageJ (NIH). For standard mRNA detection, generally […] total RNA was reverse transcribed using the QuantiTect Reverse Transcription Kit (QIAGEN). For qPCR, we used SYBR green (QIAGEN) and StepOnePlus Real-Time PCR System (Applied Biosystems). Thermal cycles were: 5 min at 95° C., 40 cycles of 15 sec at 95° C., 30 sec at 60° C. […]

T1 sequence (O75460 547-977): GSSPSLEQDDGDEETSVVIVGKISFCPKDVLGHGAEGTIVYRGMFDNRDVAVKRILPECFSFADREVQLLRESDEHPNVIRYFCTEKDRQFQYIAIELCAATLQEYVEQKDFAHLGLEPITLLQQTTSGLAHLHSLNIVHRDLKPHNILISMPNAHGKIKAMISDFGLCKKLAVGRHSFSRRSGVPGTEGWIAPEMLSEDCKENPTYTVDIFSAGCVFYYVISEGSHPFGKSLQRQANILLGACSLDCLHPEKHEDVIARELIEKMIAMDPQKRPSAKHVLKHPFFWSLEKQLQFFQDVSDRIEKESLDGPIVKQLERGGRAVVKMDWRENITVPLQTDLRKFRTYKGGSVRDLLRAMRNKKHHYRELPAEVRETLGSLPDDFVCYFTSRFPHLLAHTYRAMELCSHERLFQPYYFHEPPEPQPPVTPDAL
T2 sequence (O75460 547-977): as above

Consider `N[C@H]1CC[C@H](Nc2nccc(-c3cccnc3Oc3ccc(NS(=O)(=O)CCC(F)(F)F)c(F)c3)n2)CC1` [compound 3, N-(4-(3-(2-((1r,4r)-4-aminocyclohexylamino)pyrimidin-4-yl)pyridin-2-yloxy)-2-fluorophenyl)-3,3,3-trifluoropropane-1-sulfonamide], for which the “RNase activity of IRE1α* (in words)” value on IRE1α* [1] was “dose-dependently inhibited”. Also, the “dimerization affinity of IRE1α* / formation of RNase active dimers” value at IRE1α* [2] is recorded as “completely suppressed the formation of RNase active dimers”. For the same compound, the “kinase activity of IRE1α* / ATP-binding site occupancy (in words)” value at IRE1α* [3] is recorded as “dose-dependently inhibited”.

As to `NC(=O)Nc1cc(-c2cccc(F)c2)sc1C(=O)N[C@H]1CCCNC1` [AZD7762], on dpIRE1α*, the “formation of the RNase active dimer of dpIRE1α*” value is on record as “promotes the formation of the RNase active dimer of dpIRE1α*”. Moreover, the “dimerization affinity of IRE1α* / formation of RNase active dimers” value on IRE1α* [2] is on record as “promotes the formation of the RNase active dimer of IRE1α*”.

As to `Cc1ccc2c(NS(=O)(=O)c3ccccc3Cl)cccc2c1Oc1ncccc1-c1ccnc(N[C@H]2CCCNC2)n1` [KIRA8, reference compound], in the assay with mouse splenocytes, the IgM secretion result is “reductions in both plasma cell differentiation and IgM secretion in a dose-dependent manner”; the “plasma cell (CD138+) differentiation” value is “dose-dependently inhibits B-cell differentiation into plasma cells; also recorded: reductions in both plasma cell differentiation and IgM secretion in a dose-dependent manner”. In the assay on XBP1 mRNA splicing, the “spliced XBP1” value is “completely suppresses XBP1 splicing; also recorded: almost completely suppressed”. Besides, on IRE1α* [2], the “dimerization affinity of IRE1α* / formation of RNase active dimers” value is recorded as “unable to form RNase active dimers at any concentration tested”.
